Laboratory results taken from patent US20060003936A1, “Method for modulating the production of a selected protein in vivo” (priority 2002, published 2006).

Assays:
[1] = tested on: HCT-116 cells (116LT, 116HT); test: GCV and TMTX cytotoxicities on transduced HCT-116 cells; assay type: cell-based, human
Protocol: FIGS. 7A-D show GCV sensitivty and TMTX resisatnce in parental, tranduced and TMTX exposed colon cancer cells of the HCT-116 and HCT-8 cells lines. Bulk transduction of HCT-116 and HCT-8 was carried out with an moi of 30 for 24 hours or an moi of 2.5 for 2 hours to produce cell lines 116HT and 116LT, and 8HT and 8LT, respectively. Successful gene transfer and transgene expression was confirmed by PCR and Western blotting. […] Infection of 8LT was not detectable with the assay used.
GCV amd TMTX cytotoxicities were measured on the transduced cells. […] (FIGS. 7A and C). This finding correlates with observed levels of fusion protein expression in these cells.

[2] = tested on: DHFR-HSV1 TK fusion protein; test: DHFR-HSV1 TK fusion protein level in tumor tissue of treated rats; assay type: in vivo, rat; details: rats with flank tumors; 10 mg/kg once daily for three days or single 100 mg/kg; vs water-treated controls
Protocol: Rats bearing flank tumors were treated with 10 mg/kg of TMTX for three days (once daily), or with a single high dose of 100 mg/kg. The levels of DHFR-HSV1 TK fusion protein in the tumor tissue of antifolate treated rats, as well as in water-treated controls were analyzed. […] The mean increase was at least 2-fold.

[3] = tested on: tumors derived from 8LT-CT cells; test: PET imaging of 124I-FIAU uptake in transduced tumors; assay type: in vivo, rat; details: three cycles of 10 mg/kg TMTX, three times daily for three days per cycle, 7 treated and 7 control rats
Protocol: In a second set of experiments, tumors derived from 8LT-CT and parental HCT-8 cells were evaluated by in vivo imaging. Before the imaging, each animal received three cycles of 10 mg/kg of TMTX, three times daily for three days per cycle. Using PET and the tracer ^124I-FIAU an increase in tumor-signal intensity in TMTX-treated rats was observed.

DHFR-EGFP fusion protein = test: Fluorescence microscopy of EGFP expression in transfected GP+envAM12 cells; assay type: cell-based
Protocol: Transfections of parental GP+envAM12 cells (Markowitz et al., Virology 167: 400-405 (1988)) with EGFP-containing SFG-plasmids was carried out using DOTAP transfecting reagent (N-{1-(2,3-dioleyloxy)propyl]-N,N,N,-trimethylammonium methyl sulfate, Roche Molecular Biochemicals). Cells transfected with EGFP-expressing vectors were cultrued for at least 12 days and subsequently sorted for EGFP-positive cells using an FACS Vantage SE cell sorter (Becton Dickinson). For fluorescence microscopy, these cells were grown in T25 flasks. Confluent cells were cultured in fresh media with or without TMTX. Fluorescent images of randomly selected areas of the monolayer were taken with a Zeiss Axlovert S100 microscope.

[4] = tested on: HCT-8 cells (8LT, 8HT, 8LT-CT); test: GCV and TMTX cytotoxicities on transduced HCT-8 cells; assay type: cell-based, human
Protocol: Bulk transduction of HCT-116 and HCT-8 was carried out with an moi of 30 for 24 hours or an moi of 2.5 for 2 hours to produce cell lines 116HT and 116LT, and 8HT and 8LT, respectively.
GCV amd TMTX cytotoxicities were measured on the transduced cells.

[5] = biological target: T1, DHFR-HSV1 TK fusion protein (Homo sapiens, UniProt P00374, F32S/L23F); test: Western blot of DHFR-HSV-TK fusion protein in transduced colon cancer cells treated with antifolate; assay type: cell-based
T1 construct: HSV1 thymidine kinase (fusion partner); expressed in transfected cells; host or cells: HCT-8, HCT-116 and C85 human colorectal cancer cells, retrovirally transduced with SFG-DHFR/HSV-TK
Protocol: (§1) Retrovirus-producing cell lines were generated by transfection of DHFR-HSV1-TK plasmid in parental GP+envAM12 cells. Transfection was performed three times at cell densities of 30%, 50% and 75% using Superfect (Qiagen, Chatsworth, Calif.) as described by the manufacturer. Clones of the retrovirus were selected in 150 nM TMTX. Viral titers were determined against NIH 3T3 cells. Retrovirus-producing AM12V cells were grown in medium without antifolate to a density of 60-80%; the day before infection, the mdeium was changed. Viral transduction was performed by infecting colon cancer cells plated 48 hours before infection in 10 cm dishes. Four single virus exporsures with the desired multiplicity of infection (moi), each of 6 hour duration, were carried out. For each single exposure, fresh AM12V supernatant was filtered through a 0.45 μm cellulose acetate filter and supplemented with polybrene (8 μg/ml). The 2-hour viral transduction was performedin 6 well plates.
(§2) The transduced cells were treated with varying amounts of TMTX (10, 100 and 1000 μM) and levels of fusion protein were detected by Western blotting using either an anti-HSV-TK antibody or an anti-human DHFR antibody.
Three colorectal cancer cells lines (HCT-8, HCT-116 and a cell line, C85, recently established from a patient with liver metastasis) were transduced with the SFG-DHFR/HSV-TK fusion vector of Example 1. Transduction was verified by PCR using transgene specific primers and elevation of DHFR-HSVTK mRNA and protein expression.

[6] = tested on: HCT-8, HCT-116 and C85 colorectal cancer cells transduced with SFG-DHFR/HSV-TK; test: GCV sensitivity of transduced colon cancer cells; assay type: cell-based, human
Protocol: as §1, §2
Three colorectal cancer cells lines (HCT-8, HCT-116 and a cell line, C85, recently established from a patient with liver metastasis) were transduced with the SFG-DHFR/HSV-TK fusion vector of Example 1. […]

T1 sequence (P00374 other isoform, or with tags, fused parts or gaps L23F/F32S): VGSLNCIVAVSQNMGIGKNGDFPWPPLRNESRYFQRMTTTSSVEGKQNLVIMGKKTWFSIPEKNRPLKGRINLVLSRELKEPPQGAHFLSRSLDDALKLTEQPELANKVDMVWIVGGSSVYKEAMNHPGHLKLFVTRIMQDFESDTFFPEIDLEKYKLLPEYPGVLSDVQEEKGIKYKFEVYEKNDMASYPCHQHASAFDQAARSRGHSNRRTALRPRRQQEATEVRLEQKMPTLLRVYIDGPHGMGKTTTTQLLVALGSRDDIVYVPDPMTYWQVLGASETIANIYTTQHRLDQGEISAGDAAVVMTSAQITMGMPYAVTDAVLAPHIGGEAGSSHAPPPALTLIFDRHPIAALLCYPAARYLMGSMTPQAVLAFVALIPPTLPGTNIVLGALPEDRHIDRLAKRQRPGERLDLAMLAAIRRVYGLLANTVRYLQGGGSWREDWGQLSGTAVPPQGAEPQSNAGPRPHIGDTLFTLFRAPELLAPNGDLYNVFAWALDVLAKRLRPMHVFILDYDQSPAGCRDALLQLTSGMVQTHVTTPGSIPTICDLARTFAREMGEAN

In the case of `COc1cc(NCc2ccc3nc(N)nc(N)c3c2C)cc(OC)c1OC` [TMTX, trimetrexate], the “TMTX resistance compared with parental cell line” value ([1]; 116HT cells) is reported as “higher”, the “TMTX resistance compared with parental cell line” value ([1]; 116LT cells) is reported as “moderate” and the “mean increase of DHFR-HSV1 TK fusion protein in tumor tissue” value [2] is reported as “at least 2 fold”. For the same compound, the “124I-FIAU accumulation in transduced tumor tissue vs untreated controls” value [3] was 2.6 fold, the “expression of DHFR-EGFP fusion protein” value (DHFR-EGFP fusion protein; DHFR-EGFP fusion vector, 1 μM, durable at 24 and 48 hours) was “increased” and the “expression of EGFP” value (DHFR-EGFP fusion protein; plasmids expressing DHFR and EGFP separated by IRES, or just EGFP) was “not increased”. For the same compound, the TMTX cytotoxicity ([4]; 8HT cells) was “TMTX resistance”, the “induction of expression of the DHFR-HSV1 TK fusion protein” value ([5]; concentration range 10^−2 to 1 μM) was “dose-dependent” and the fusion protein levels ([5]; high concentrations (1000 μM), without an increase in mRNA) was “transient increase in fusion protein levels”. For the same compound, the “fusion protein expression (Western blot)” value ([5]; transduced colon cancer cells, TMTX 10, 100 and 1000 μM, anti-HSV-TK or anti-human DHFR antibody) was “upregulation of fusion protein expression was observed”.

`COc1cc([C@@H]2c3cc4c(cc3[C@@H](O[C@@H]3O[C@@H]5CO[C@@H](C)O[C@H]5[C@H](O)[C@H]3O)[C@H]3COC(=O)[C@H]23)OCO4)cc(OC)c1O` [etoposide] was tested, and the “induction of the fusion protein” value ([5]; treatment of cells, concentration not given) was “did not cause induction”.

`Nc1nc(O)c2ncn(COC(CO)CO)c2n1` [GCV, gancyclovir] was tested, and the “increase in sensitivity to GCV” value ([6]; transduced cells after cycles of nine day exposures to increasing TMTX, vs non-transduced cells) was 250 fold, the “sensitivity to GCV” value ([6]; transduced cells compared to unselected or untransduced cells) was “increased sensitivity” and the “GCV cytotoxicity compared with parental cell line” value ([1]; 116HT cells) was “higher”. For the same compound, the “GCV cytotoxicity compared with parental cell line” value ([1]; 116LT cells) was “moderate”, the GCV cytotoxicity ([4]; 8HT cells) was “GCV sensitivity” and the “increase in GCV sensitivity” value ([4]; HCT-8 cells treated chronically with increasing concentrations of TMTX (8LT-CT)) was 250 fold.
